Test results from patent US20070238700A1, “N-PHENYL-1,1,1-TRIFLUOROMETHANESULFONAMIDE HYDRAZONE DERIVATIVE COMPOUNDS AND THEIR USAGE IN CONTROLLING PARASITES” (priority 2006, published 2007).
Read-outs that look alike come from different tables or passages of the source.

System: Ctenocephalides felis
Method: b) Ctenocephalides felis Adulticide Assay: C. felis Single Dose Screen
Mortality of fleas was the primary endpoint in the assay. Fleas were considered dead if they didn't move or were on their sides and unable to walk or right themselves. […] The concentration chosen (1.26 μg/cm^2) was higher than that known to kill 90% of cat fleas (LC90) using the reference compound, permethrin.
The test species was the cat flea (Ctenocephalides felis). The strain used was obtained from external suppliers as pupae and held in the laboratory under testing conditions until the adults had emerged. Fifteen (15) fleas were used in a minimum of four replicates against a single concentration level (approximately 60 fleas). The insects were selected to be in the adult life stage, aged between 3 and 7 days post emergence.
The compounds to be tested were supplied as solids and were prepared in acetone as described below prior to testing. Samples were stored in a refrigerator (5±1° C.) unless otherwise specified.
During the mortality testing, the temperature was maintained at 25±1° C. Humidity was maintained at 75±5%. The base (area=159 mm^2) of a 100 mL glass Erlenmeyer (conical) flask provided the treatment surface. Flasks were pretreated with Coatasil™ glass treatment to maximise bio-availability of test compounds by preventing them from binding to glass the surface. The base of the 100 mL Erlenmeyer flask was treated with 0.5 mL of test sample in acetone and gently swirled. This volume was sufficient to cover the base of the flask. Flasks were left to dry for 24 hours before flea exposure.
Adult cat fleas were placed into a sorting chamber, which allowed fleas to jump into the Erlenmeyer flasks. Fifteen (15) adult cat fleas were collected in each flask. The top of the flasks were then covered in Parafilm™ and small holes were made to allow gas exchange. A 0.5 mL volume of acetone as a solvent control was applied to the base of an Erlenmeyer flask and the testing proceeded in the same manner described above. Cat fleas in the treatment containers were held under testing conditions for 8, 24 and/or 48 hours. Mortality was recorded at 8, 24, 8 and 24, or 24 and 48 hours Pooled 8, 24, 8 and 24, and 24 and 48 hour mortality data were converted to percentages and are summarized by Table 21, below.

Row | Structure (SMILES) | C. felis Mortality (%) 8 h | C. felis Mortality (%) 24 h | C. felis Mortality (%) 8 h (8 h, data from laboratory 1) | C. felis Mortality (%) 24 h (24 h, data from laboratory 1)
1 | O=S(=O)(Nc1ccc(Cl)cc1-c1ccnn1-c1ccc(Cl)cc1)C(F)(F)F [Compound 108, N-[2-(1-4′-chlorophenyl-1H-pyrazol-5-yl)-4-chlorophenyl]-trifluoromethanesulfonamide] | 0% | 64% | – | –
2 | COCN(c1ccc(Cl)cc1C(C)=NN(C)c1ccccc1)S(=O)(=O)C(F)(F)F [Compound 110] | – | – | 6% | 52%
3 | CC(=NN(C)c1ccccc1)c1cc(Cl)ccc1N(COC(=O)C(C)(C)C)S(=O)(=O)C(F)(F)F [Compound 111] | – | – | 14% | 32%
4 | CC(=NN(C)C)c1cc(Cl)ccc1NS(=O)(=O)C(F)(F)F [Compound 113] | – | – | 3% | 66%
5 | CC(=NN(C)c1ccccc1)c1ccccc1NS(=O)(=O)C(F)(F)F [Compound 114, N-[2-[1-(N′-methyl-N′-phenyl)hydrazono]ethyl-phenyl]-trifluoromethanesulfonamide] | 56% | 86% | – | –
6 | CC(=NN(C)c1ccccc1)c1cccc(Cl)c1NS(=O)(=O)C(F)(F)F [Compound 115] | – | – | 10% | 63%
7 | CN(N=C(c1cc(Cl)ccc1NS(=O)(=O)C(F)(F)F)C1CCCCC1)c1ccccc1 [Compound 119] | – | – | 7% | 14%
8 | O=S(=O)(Nc1ccc(Cl)cc1C(=NNc1ccc(Cl)cc1)c1ccccc1)C(F)(F)F [Compound 121] | – | – | 12% | 41%
9 | CC(=NNc1ccc(Cl)cc1)c1ccccc1NS(=O)(=O)C(F)(F)F [Compound 122] | – | – | 23% | 26%
10 | CN(C)N=C(c1ccccc1)c1cc(Cl)ccc1NS(=O)(=O)C(F)(F)F [Compound 123, N-[2-[1-dimethylhydrazono-1-phenyl]methyl-4-chlorophenyl]-trifluoromethanesulfonamide] | 9% | 45% | – | –
11 | CCC(=NN1CCCC1)c1cc(Cl)ccc1NS(=O)(=O)C(F)(F)F [Compound 128] | – | – | 12% | 36%
12 | C#CCN(c1ccc(Cl)cc1C(C)=NN1CCCCC1)S(=O)(=O)C(F)(F)F [Compound 133, N-[2-[1-(1-piperidyl)imino]ethyl-4-chlorophenyl]-N-propargyltrifluoromethanesulfonamide] | 5% | 66% | – | –
13 | CC(=NN1CCCCC1)c1cc(Cl)ccc1N(C)S(=O)(=O)C(F)(F)F [Compound 134] | – | – | 7% | 14%
14 | CCN(c1ccc(Cl)cc1C(C)=NN1CCCCC1)S(=O)(=O)C(F)(F)F [Compound 135, N-[2-[1-(1-piperidyl)imino]ethyl-4-chlorophenyl]-N-ethyl-trifluoromethanesulfonamide] | 8% | 41% | – | –
15 | CC(C)=CCN(c1ccc(Cl)cc1C(C)=NN(C)c1ccccc1)S(=O)(=O)C(F)(F)F [Compound 136] | – | – | 7% | 13%
16 | C#CCN(c1ccc(Cl)cc1C(C)=NN(C)c1ccccc1)S(=O)(=O)C(F)(F)F [Compound 137] | – | – | 6% | 19%
17 | CC(=NN(C)C(=O)c1ccccc1)c1cc(Cl)ccc1NS(=O)(=O)C(F)(F)F [Compound 138] | – | – | 20% | 66%
18 | CC(=NN(C)c1cc(Cl)ccc1Cl)c1cc(Cl)ccc1NS(=O)(=O)C(F)(F)F [Compound 141] | – | – | 13% | 75%
19 | CCN(N=C(C)c1cc(Cl)ccc1NS(=O)(=O)C(F)(F)F)c1cc(Cl)ccc1Cl [Compound 142] | – | – | 12% | 46%
20 | CCCN(N=C(C)c1cc(Cl)ccc1NS(=O)(=O)C(F)(F)F)c1cc(Cl)ccc1Cl [Compound 143] | – | – | 13% | 53%
21 | CC(=NN(c1cc(Cl)ccc1Cl)C(C)C)c1cc(Cl)ccc1NS(=O)(=O)C(F)(F)F [Compound 144] | – | – | 7% | 42%
22 | CCOCN(c1ccc(Cl)cc1C(C)=NN1CCCCC1)S(=O)(=O)C(F)(F)F [Compound 145] | – | – | 8% | 35%
23 | COCN(c1ccc(Cl)cc1C(C)=NN1CCCCC1)S(=O)(=O)C(F)(F)F [Compound 146] | – | – | 12% | 24%
24 | CC(=NNc1ccc(C)cc1)c1cc(Cl)ccc1NS(=O)(=O)C(F)(F)F [Compound 155] | – | – | 7% | 28%

Row | Structure (SMILES) | C. felis Mortality (%) 8 h | C. felis Mortality (%) 24 h | C. felis Mortality (%) 8 h (8 h, data from laboratory 1) | C. felis Mortality (%) 24 h (24 h, data from laboratory 1)
25 | CCOC(=O)N(CCC(C)C)N=C(C)c1cc(Cl)ccc1NS(=O)(=O)C(F)(F)F [Compound 158] | 5% | 28% | – | –
26 | CC(=NN1CCCCC1)c1cccc(NS(=O)(=O)C(F)(F)F)c1 [Compound 161] | – | – | 7% | 16%
27 | CC(=NN(C)c1ccccc1)c1cc(NS(=O)(=O)C(F)(F)F)ccc1Cl [Compound 162] | – | – | 8% | 58%
28 | CC(=NN(C)c1ccccc1)c1cccc(NS(=O)(=O)C(F)(F)F)c1 [Compound 163, N-[3-[1-(N′-methyl-N′-phenyl)hydrazono]ethylphenyl]-trifluoromethanesulfonamide] | 8% | 18% | – | –
29 | CC(=NN(C)c1ccccc1)c1ccc(NS(=O)(=O)C(F)(F)F)cc1 [Compound 164] | – | – | 8% | 72%
30 | CC(=NNc1ccc(Cl)cc1)c1ccc(NS(=O)(=O)C(F)(F)F)cc1 [Compound 165] | – | – | 6% | 7%
31 | CC(=NN1CCCCC1)c1ccc(NS(=O)(=O)C(F)(F)F)cc1 [Compound 167] | – | – | 2% | 5%
32 | C=CCN(N=C(C)c1cc(Cl)ccc1N(CC=C)S(=O)(=O)C(F)(F)F)c1ccc(Cl)cc1 [Compound 170] | – | – | 2% | 24%
33 | C=CCN(N=C(C)c1cc(Cl)ccc1NS(=O)(=O)C(F)(F)F)c1ccc(Cl)cc1 [Compound 171] | – | – | 7% | 54%
34 | CC(=NN(C)c1ccccc1)c1cc2c(cc1NS(=O)(=O)C(F)(F)F)OCO2 [Compound 172] | – | – | 5% | 31%
35 | C=CCN(N=C(C)c1cc(Cl)ccc1NS(=O)(=O)C(F)(F)F)c1ccccc1 [Compound 173] | – | – | 17% | 59%
36 | CC(=NNS(=O)(=O)c1ccc(C)cc1)c1cc(Cl)ccc1NS(=O)(=O)C(F)(F)F [Compound 174] | – | – | 5% | 27%
37 | C#CCN(N=C(C)c1cc(Cl)ccc1NS(=O)(=O)C(F)(F)F)c1ccccc1 [Compound 175] | – | – | 5% | 38%
38 | CC(=NN1CCCCC1)c1ccccc1NS(=O)(=O)C(F)(F)F [Compound 176] | – | – | 7% | 31%
39 | CC(=NN1CCCCC1)c1ccc(C(F)(F)F)cc1NS(=O)(=O)C(F)(F)F [Compound 177] | – | – | 3% | 22%
40 | CC(=NNc1ccc(F)cc1)c1ccccc1NS(=O)(=O)C(F)(F)F [Compound 178] | – | – | 4% | 29%
41 | CC(=NNc1ccc(Cl)cc1)c1ccc(C(F)(F)F)cc1NS(=O)(=O)C(F)(F)F [Compound 179] | – | – | 3% | 25%
42 | CC(=NNc1ccc(F)cc1)c1ccc(C(F)(F)F)cc1NS(=O)(=O)C(F)(F)F [Compound 180] | – | – | 0% | 16%
43 | CC(=NN1CCCCC1)c1cc2c(cc1NS(=O)(=O)C(F)(F)F)OCO2 [Compound 181] | – | – | 7% | 16%
44 | CCN(N=C(C)c1ccccc1NS(=O)(=O)C(F)(F)F)c1ccc(Cl)cc1 [Compound 182] | – | – | 5% | 29%
45 | CC(=O)N(N=C(C)c1cc(Cl)ccc1NS(=O)(=O)C(F)(F)F)c1ccccc1 [Compound 183] | 2% | 22% | – | –
46 | CC(=Nn1c(=O)oc2ccccc21)c1cc(Cl)ccc1NS(=O)(=O)C(F)(F)F [Compound 184, N-[4-Chloro-2-(1-(2(3H)-oxo-benzoxazol-3-yl)imino)ethylphenyl]-trifluoromethanesulfonamide] | 2% | 12% | – | –
47 | CC(=Nn1cccn1)c1cc(Cl)ccc1NS(=O)(=O)C(F)(F)F [Compound 185] | – | – | 2% | 11%
